The melting point is the temperature, or range, at which the solid turns liquid.

As for `Cc1cc(-c2ccc(F)cc2)n(-c2ccc(S(N)(=O)=O)cc2)c1`, the melting point lay within 168 to 170 °C.

Turning to `COCOc1ccc(CCCOc2nn(Cc3ccccc3)cc2CC(=O)O)c(Oc2ncc(C(F)(F)F)cc2Cl)c1`, the melting point fell in the range of 108 to 109 °C. `CN(C)c1ccc2sc(C=O)cc2c1` showed a melting point of 105 to 106 °C. Next, `COc1cc(C)c(C(=O)c2c(OC)cnc(Cl)c2Cl)c(OC)c1OC`: 98 to 99 °C. With `CCCCNc1c(N)c(NCC(C)C)nc(C)c1C(=O)OCC`, the melting point lay in the range of 34 to 36 °C. `CC(C#Cc1ccc(Oc2ccc(F)cc2)s1)N(O)C(N)=O` (stereo not drawn) displayed a melting point of 149 to 150 °C.

The compound `CCn1cc(C(=O)O)c(=O)c2cc(Cl)c(N3CCN(C)CC3)cc21` had a melting point of 260 °C. Next, `C=CC(CC(O)C(CC1CCCCC1)NC(=O)C(Cc1c[nH]cn1)NC(=O)C(Cc1ccccc1)NC(=O)OC(C)(C)C)C(C)C` (stereo not drawn): 161 °C; `Cc1c(C)c2c(c(C)c1NC(=O)c1ccc3c(c1)OCO3)C(c1ccc(C(C)C)cc1)C(C)(C)O2` (stereo not drawn): 165 to 167 °C; `Cn1c(-c2ccc(N3CCOCC3)cc2)cnc1[C@H](Cc1ccccn1)N(C=O)c1cc2cc(Br)ccc2o1`: 173 to 174 °C. With `CN(C)S(=O)(=O)c1cc(C(=O)O)cc([N+](=O)[O-])c1Oc1ccccc1` the figure was 224 to 226 °C. With `CC(C)n1c(=O)n(C)c(=O)c2cn(C3Cc4ccccc4C3)cc21` the figure was 158 to 160 °C. Regarding `CCc1cccc2c3c([nH]c12)C(CC)(CC(O)O)OCC3` (stereo not drawn), the melting point was 158 to 159 °C. Next, `O=C(N[C@H]1CC[C@H](CCN2CCN(c3nccc4c3OCC4)CC2)CC1)C1(O)CC1`: 248 °C; `CC(=O)Oc1cc2c(c3ccccc13)Nc1ccccc1S2=O` (stereo not drawn): 179 to 181 °C; `CCNC(=O)c1c(Br)cccc1[Si](C)(C)C`: 121 to 122 °C. As for `C=CCOc1cc(C(=O)O)cc([N+](=O)[O-])c1C(=O)c1ccccc1`, the melting point lay in the range of 192 to 193 °C. Compound `N#Cc1cc(C#N)cc(Oc2cccc(Oc3cc(C#N)cc(C#N)c3)c2)c1` came in with a melting point of 212 to 213 °C. With `CCCCOC(=O)[C@H]1CN(c2ccc3c(c2)oc(=O)n3C)C(=O)O1` the figure was 182 to 184 °C; with `CCOC(=O)c1cc2ccccc2n1C`, 62 to 64 °C; with `FC(F)c1nc2ccccc2n1-c1nc(Sc2ccccc2)nc(N2CCOCC2)n1`, 245 to 248 °C. Next, `Fc1cc(F)c(F)c(-c2c(Cl)nc3ncnn3c2Cl)c1`: 191 °C. The compound `CC(C)C(Br)C(=O)NCC(=O)O` (stereo not drawn) yielded a melting point of 138 to 139 °C.

Turning to `CCc1nc2c(C)cc(C)nc2n1Cc1ccc2oc(-c3cccc(F)c3C(=O)O)c(Br)c2c1`, the melting point lay within 191 to 194 °C. Next, `OCc1cc(OCc2ccccc2)nn1-c1ccccc1`: 87 to 88 °C; `Cn1ncc(C(=O)N2CCCC2)c1C(=O)Nc1ccc2nc(-c3cccnc3)nn2c1`: 251 °C. Next, `CS(=O)(=O)Nc1ccc(C#CCCN2CC=C(c3ccccc3)CC2)nc1`: 138 to 139 °C; `COP(=S)(OC)SCc1nc2sccn2c(=O)c1Cl`: 125 to 130 °C; `Nc1ncc(Br)nc1OCC1CCCC1`: 78 to 79 °C.

`CCCCCCCCCCCCN(N)C(=O)NC`: the melting point lay within 73 to 75 °C.

In the case of `CC(C)(C)c1cc(C(O)CN)cc(C(C)(C)C)c1O` (stereo not drawn), the melting point lay within 137 to 140 °C. Next, `CC(C)N(CCn1cc(C(=O)NCc2ccc(Cl)cc2)c(=O)c2cc(C#CCO)ccc21)C(C)C`: 188 to 191 °C; `CC(=O)COc1ccc2ccc(Oc3c(Cl)cc(C(F)(F)F)cc3Cl)cc2c1`: 132 °C; `COCC1(C)CCCOc2cc(C#Cc3ccc(C(=O)O)cc3)ccc21` (stereo not drawn): 112 °C.

Take `O=C1c2c(O)ccc(O)c2C(=O)c2c(NCCN3CCCC3)ccc(NCCN3CCCC3)c21`: the melting point fell in the range of 193 to 196 °C.

As to `CC(C)(C)OC(=O)c1nc(-c2ccccc2)[nH]c1-c1cnccn1`, the melting point was 196 to 197 °C. With `CC(=O)OCC1OC(n2ncc(C#N)n2)C(OC(C)=O)C1OC(C)=O` (stereo not drawn) the figure was 77 to 79 °C; with `COc1cc2ccccc2cc1N(C)C(=O)N1CCN(c2cc(Cl)cc(Cl)c2)CC1`, 165 to 167 °C. The compound `O=c1cc[nH]c2nc(-c3ccncc3)ncc12` yielded a melting point of more than 350 °C.

Compound `CCOC(=O)COc1ccc(C(=O)Nc2cc(OC)ccc2Sc2ccccc2-c2nnn[nH]2)cc1` showed a melting point of 195 to 197 °C.

In turn, `COc1cc(C(O)c2ccc(C)cc2)cc(C2OCCCO2)c1OC` (stereo not drawn) yielded a melting point of 83 to 84 °C. Next, `O=C(O)C1(CP(=O)(OCc2ccccc2)OCc2ccccc2)CCCC1`: 89 to 92 °C. The compound `CNCCC1=C(C#N)C(c2cccc3nonc23)c2c[nH]nc2N1` (stereo not drawn) yielded a melting point of 174 °C. Next, `Cc1cc(Oc2ccc(Cl)c(Cl)c2)ccc1S(C)(=O)=O`: 154 to 156 °C; `C=CCOc1cccc2c(=O)cc(N3CCOCC3)oc12`: 134 to 136 °C. With `CCCNC(=O)c1cnc2c(C)cccn2c1=O`, the melting point lay in the range of 138 to 140 °C. Next, `CCCCNC(=O)NS(=O)(=O)Cc1ccccc1-c1nnc(SC)o1`: 156 to 159 °C; `COC(=O)c1cncn1C1c2ccccc2C(F)(F)C1(C)C` (stereo not drawn): 96 to 97 °C; `COc1ccc(CN2CC(COC(c3ccccc3)(c3ccccc3)c3ccccc3)CC2=O)cc1` (stereo not drawn): 171 to 173 °C.

Compound `CN(C)c1ccc(C(=O)N(CCN2CCC(C(=O)c3ccc(F)cc3)CC2)c2cccnc2)cc1` displayed a melting point of 147 to 152 °C. With `CCn1c(=O)c2c(nc(/C=C/c3ccc(OCCCCN)cc3)n2C)n(CC)c1=O` the figure was 212 to 214 °C. Next, `CCn1c(Cl)nc2cc(C(F)(F)F)c(Cl)c(N)c21`: 134 to 142 °C; `CCc1nnc2c(Cl)nc3ccc(Cl)cc3n12`: more than 250 °C. Next, `CCC(C)n1ncn(-c2ccc(N3CCN(c4ccc(O)cc4)CC3)cn2)c1=O` (stereo not drawn): 144 to 145 °C; `CCCCCCCCCCC#Cc1ccc2c(c1)c(C=O)cn2S(=O)(=O)c1ccc(C)cc1`: 84 to 86 °C; `NC(=O)N1C(=O)C(C(=O)c2ccc(Cl)s2)c2cc(Cl)ccc21` (stereo not drawn): 220 to 222 °C.

Compound `COc1ccc2c(c1)CC[C@@H]1[C@@H]2CC[C@@]2(C)[C@H]1CCC21CC(O)CO1` (stereo partly drawn) showed a melting point of 95 to 97 °C. Next, `COC(=O)c1cncn1C1c2ccccc2C(=O)C1(C)C` (stereo not drawn): 104 to 108 °C; `OC1(C(c2ccccc2)c2ccccc2)CSC2=NCCCCN21` (stereo not drawn): 123 to 125 °C. With `N#Cc1cc(-c2ccccc2Cl)c[nH]c1=O` the figure was 252 to 254 °C; with `COC(=O)C1(NC(=O)Cc2cc(-c3ccc(Cl)cc3)ccc2Cl)CCCC(C(F)(F)F)C1` (stereo not drawn), 148 °C; with `COC(=O)c1cc(C(=O)c2c(C)c(OC)c3c(OCC(=O)OC(C)(C)C)cccn23)ccc1N`, 188 °C.

As to `CN(C)c1nc2ncnc(NCc3ccco3)c2[nH]1`, the melting point was in the range of 245 to 246 °C. The compound `N#Cc1c(Cl)c2cccnc2[nH]c1=O` had a melting point of 310 °C. With `CC(=O)N1CCc2cc(S(=O)(=O)n3c(COC(C)(C)C(=O)O)cc4cc(C(F)(F)F)ccc43)ccc21` the figure was 176 to 178 °C; with `c1ccc(CON=C2CC(=NOCc3ccccc3)c3ccccc3-c3ccccc32)cc1`, 112 °C. The compound `COc1ccc(OC(=O)c2ncn3c2[C@@H]2CCCN2C(=O)c2c(Cl)cccc2-3)cc1` yielded a melting point of 210 to 211 °C.

In the case of `Cc1ccccc1Sc1c(O)c2ccc(Cl)cc2[nH]c1=O`, the melting point was in the range of 296 to 299 °C. Next, `O=C(CCCCc1ncc[nH]1)NNC(=O)N1Cc2ccccc2Oc2ccc(Cl)cc21`: 164 to 166 °C; `COc1cc(Cc2cnc(N)nc2N)cc2c1OC(C)(C)C=C2Cl`: 221 to 222 °C; `NS(=O)(=O)c1ccccc1C(=O)OC1COC1`: 169 to 170 °C. Regarding `Cn1nc(-c2c(F)cccc2Cl)nc1-c1ccc(Oc2ccccc2)cc1Cl`, the melting point is 135 to 140 °C. Compound `O=C1CCOc2ccc(OCc3ccc4ccc(Cl)cc4n3)cc21` displayed a melting point of 163 to 164 °C. With `C=CCn1nnc2cc3c(=O)n(C(C)Cn4ncnn4)nnc3cc2c1=O` (stereo not drawn) the figure was 159 to 161 °C; with `O=C(NCCO)c1ccc(-c2ccc3nnn(Cc4ccc5ncccc5c4)c3n2)cc1`, more than 260 °C; with `CC(=O)NC(NC(=O)CC(=O)OCc1ccccc1)C(=O)NCc1ccccc1` (stereo not drawn), 177 to 179 °C.

`Oc1ccc(NCCCCCCCBr)cc1` displayed a melting point of 121 to 123 °C. With `CC(C)[C@H](OCc1ccccc1F)[C@H]1[C@H]([N+](=O)[O-])[C@H](c2ccccc2)N[C@@H]1C(=O)NCC(=O)O` the figure was 72 to 73 °C; with `N#CC1(c2cccs2)CC1`, 118 to 122 °C; with `CN1CCC(C(=O)O)(S(=O)(=O)c2ccc(Oc3ccc(Cl)cc3)cc2)CC1`, 185 °C. With `CN1C(=O)CC[C@]2(C)c3ccc(-c4ccccc4F)cc3CC[C@@H]12` the figure was 142 to 150 °C; with `CCOCCOc1ccc(-c2ccc3c(c2)C=C(C(=O)Nc2ccc(CN(C)C4CCOCC4)cc2)CCS3(=O)=O)cc1OCC`, 164 to 168 °C; with `COC(=O)[C@@H](C)N[C@@H](CC(C)(C)C)C(=O)O`, 120 to 124 °C. With `CCCCCCCCCCCCCCC/C=C/C=O` the figure was 35 °C; with `N#Cc1cc(C(=O)CBr)ccc1N`, 162 to 165 °C. As for `COc1cc(Nc2c(C#N)cnc3cc(SCc4ccccc4)c(OC)cc23)c(Cl)cc1Cl`, the melting point fell in the range of 123 to 125 °C. Consider `CS(=O)(=O)n1ccc(-c2ccc(Oc3ccccc3)cc2)n1`, for which the melting point stood at 136 °C.

In the case of `Cc1cc(-n2cncn2)c2cc(Cl)cc(Cl)c2n1`, the melting point lay within 220 to 222 °C.

Values taken from a melting point compilation (Tetko et al.; mined from patent text by program, amines drawn as free bases though some values may be those of a salt).
